According to article PMC11652163, “Impact of fresh grape juice on the pharmacokinetics of omeprazole: results of a food–drug interaction study” (Frontiers in Pharmacology, 2024):
Read-outs that look alike come from different tables or passages of the source. Each block holds one compound with its values, some of them ahead of it.

Legend:
[1] = Pharmacokinetics of oral omeprazole (40 mg) alone or with fresh grape juice in healthy male volunteers, plasma HPLC-UV, non-compartmental analysis; assay type: in vivo, human; settings: for AUC / Tmax / Cmax: male, human, plasma; for AUC / Cmax: 40 mg
Method: The open-label and randomized study design was used to conduct the study in normal, healthy male volunteers. All volunteers were directed not to take any type of medication, including herbal medicines, for 2 weeks prior to clinical trials. Volunteers were divided into two groups. In treatment period-I, after overnight fasting, volunteers in group A received omeprazole (40 mg) alone, and volunteers in group B, […], were administered omeprazole (40 mg) along with grape juice (≈ 250 mL) on the fourth day. […] The volunteers in group B were given omeprazole (40 mg) alone. […] Blood samples (≈ 3 mL) were collected from each volunteer before the administration of the drug, as a blank, and following the administration of the drug at 0 […], and 24 h, in EDTA blood collection tubes. […] It was then centrifuged at 5,000 rpm for 5 min at -3°C. The supernatant was removed and evaporated in a nitrogen flux and then reconstituted in the mobile phase up to 0.5 mL and stored in a refrigerator. The samples were analyzed using a validated HPLC/UV-Vis chromatographic method developed for plasma sample analysis. The plasma samples were thawed on ice at room temperature and processed for analysis using the developed method. A calibration curve was plotted for varying concentrations of omeprazole, keeping the concentration of pantoprazole constant, and used as an internal standard. […] The concentration of pantoprazole was kept at 1 μg/ml as an internal standard. The concentration of omeprazole was 1 μg/mL, 1.5 μg/mL, and 2 μg/mL, and the concentration of internal standard was 1 μg/mL. The pharmacokinetic parameters of plasma omeprazole were calculated for each individual, using non-compartmental analysis of plasma concentration-time data with the help of PK-Summit® software. Cmax, the maximum plasma concentration, and tmax, the time to reach the maximum plasma concentration, were directly calculated from the analyzed data. The terminal half-life was calculated using the equation 0.693/kel, where kel represents the value of the elimination rate constant. The area under the plasma concentration-time curve was calculated according to the trapezoidal rule over the time interval 0 to the last measurable concentration (AUC0-t) and subsequent extrapolation to time infinity (AUC0-∞). The first moment of the plasma concentration vs. time curve (AUMC) is the plasma concentration multiplied by time vs. the time curve calculated by the same trapezoidal rule. The total body clearance (CL/F) was calculated as dose/AUC0-∞. The volume of distribution was calculated by multiplying total body clearance with the mean residence time (MRT). Statistical analysis was performed by paired t-test, and the pharmacokinetic parameters of omeprazole with water were compared with the parameters obtained from omeprazole administered with grape juice.

[2] = previously reported range; cited from earlier work
[3] = with repeated doses; cited from earlier work
[4] = test system: H+/K+ ATPase or proton pump in parietal cells; set-up: method as in Kromer et al., 1999; settings: ref Kromer et al., 1999; cited from earlier work
[5] = Pharmacokinetics of oral omeprazole (40 mg) alone or with fresh grape juice in healthy male volunteers, plasma HPLC-UV, non-compartmental analysis; assay type: in vivo, human; settings: regular intake of 250 mL grape juice for 1 week before omeprazole
[6] = set-up: method as in Dong et al., 1999; settings: following administration of grape juice, healthy Chinese subjects; ref Dong et al., 1999; cited from earlier work

AUC ([1]; oral, omeprazole 40 mg with water, read-out: AUC0 ∞): 6000 ± 1540 ng·h/mL
Tmax ([1]; oral, omeprazole 40 mg co-administered with fresh grape juice, read-out: mean time to reach the maximum plasma concentration (converted)): 2.09 h
Cmax ([1]; po, omeprazole 40 mg oral alone with water, mean): 1950 ng/mL
AUC ([1]; po, omeprazole 40 mg oral alone with water, mean, read-out: AUC0t): 5840 ng·h/mL
AUC ([1]; po, omeprazole 40 mg oral alone with water, mean, read-out: AUC0∞): 6000 ng·h/mL
AUC ([1]; po, omeprazole 40 mg oral alone with water, read-out: AUC0 t): 5840 ng·h/mL
AUC ([1]; po, omeprazole 40 mg oral alone, Table 4, read-out: AUC0∞): 6000 ng·h/mL
Cmax ([1]; po, omeprazole 40 mg oral with 250 mL fresh grape juice after prior juice intake, mean): 1020 ng/mL
AUC ([1]; po, omeprazole 40 mg oral with fresh grape juice, mean, read-out: AUC0 t): 2830 ng·h/mL
AUC ([1]; po, omeprazole 40 mg oral with fresh grape juice, mean, read-out: AUC0∞): 2910 ng·h/mL
Tmax ([1]; omeprazole 40 mg oral with fresh grape juice, mean, read-out: Tmax): 2.09 h
AUMC0∞ ([1]; omeprazole 40 mg oral alone with water, mean): 19.6 µg.hr*hr/mL
AUMC0∞ ([1]; omeprazole 40 mg oral alone, Table 4): 19.6 µg.hr*h/mL
AUMC0∞ ([1]; omeprazole 40 mg oral with fresh grape juice, mean): 10.36 µg.h*h/mL
AUMC0∞ ([1]; omeprazole 40 mg oral with grape juice, Table 4): 10.36 µg.hr*h/mL
effect of grape juice on mean value of clearance ([1]; omeprazole with grape juice versus alone): increased
Ratio (OMP + juice/OMP) of AUC0 t ([1]; with grape juice versus alone): 0.4846
Ratio (OMP + juice/OMP) of AUC0∞ ([1]; with grape juice versus alone): 0.485
Ratio (OMP + juice/OMP) of AUMC0∞ ([1]; with grape juice versus alone): 0.5286
Ratio (OMP + juice/OMP) of Cmax ([1]; with grape juice versus alone): 0.5212
Ratio (OMP + juice/OMP) of Tmax ([1]; with grape juice versus alone): 1.045
effect of grape juice on half-life [5]: not affected
SMILES: COc1ccc2[nH]c([S+]([O-])Cc3ncc(C)c(OC)c3C)nc2c1 (centres unmarked) [Omeprazole]
tmax, range already reported [2]: 2 to 3 h
increase of bioavailability [3]: up to 60%
duration of inhibition of gastric acid secretion [4]: up to 36 h

SMILES: CCOc1ccc(NC(C)=O)cc1 [phenacetin]
change of AUC [6]: reduced AUC
